Data from patent US20120088667A1, “SAFENING AGENT” (priority 2009, published 2012).

How the values were obtained:
Winter Barley cv Saffron = assay: Safening of fertilisers, pot trial: phytotoxicity and vigour scores, winter barley; assay type: in vivo; conditions: for Phytotoxicity (0-9) (0 = Dead) + 14 Days / Phytotoxicity (0-9) (0 = Dead) + 28 Days: score 0-9, 0 = dead
From the text: (§1) The safening system and the fertilizer were applied either simultaneously or sequentially.
(§2) Sprayed: mid-tillering phase (GS23). Winter Wheat: cv Limerick, sown 4 Jun. […] Sprayed: mid-tillering phase (GS23). Lettuce: cv Set, sown 10 Jul. 2008, at one seed per pot, in John Innes No 1 compost. Date of spraying: 30 July; Dates of measurement: 7 August, 14 August, 28 August. Sprayed: 2 true leaf stage.

Lettuce cv Set = assay: Safening of fertilisers, pot trial: phytotoxicity and vigour scores, lettuce; assay type: in vivo
From the text: as §1, §2

Soybean = assay: Root nodulation and safening, soybean, compost of low pH (Example 7.1); conditions: Soybean, compost of low pH (5.0-5.5); for Nodules Per Plant (V1): V1, +28 days after spraying, mean of 12 plants; for Nodulation Score (0-9) (V1) / Phyto-Toxicity Score (0-9) (V1) / Vigour Score (0-9) (V1): V1, score 0-9; for Nodules Per Plant (VC): +28 days after spraying
From the text: (§3) The safener/safening system and the fertiliser were applied to the crops either simultaneously or sequentially.
(§4) Co=100% Cobalt Sulphate (20 g per litre and per hectare). FF1=20 g per litre Cobalt Sulphate (as per Co above) plus “Miracle-Gro” at xl recommended rate (applied at 15 g per 2.5 sq metres). Miracle-Gro contains: 24% N, 4% P, 13% K, plus 0.02% B, 0.03% Cu, 0.19% Fe, 0.05% Mn, 0.001% Mo and 0.03% Zn. FF2=20 g per litre Cobalt Sulphate plus Miracle-Gro at ×2 recommended rate. SAF: at least one from class (f) each at <3 g/l, plus at least one from class (c).
Scored/Counted+28 Days After Spraying. Sown in Compost of low pH (5.0-5.5) on 1 May 2008. Spray Date (VC)=4 June, V1 Date=20 June. Scored/Measured on 17 July. […] Seed density approx 110 kg/ha. Soybean treated with standard inoculant at sowing.

Glycine max (Soybean) = assay: Root nodulation and safening, soybean, compost of normal pH (Example 7.2); conditions: compost of normal pH (6.5); for Nodules Per Plant (V1): V1, mean of 12 plants; for Nodulation Score (0-9) (V1) / Phyto-Toxicity Score (0-9) (V1) / Vigour Score (0-9) (V1): V1, score 0-9
From the text: as §3, §4
Dates as per Example 7.1 above, but sown in compost of normal pH (6.5). Each treatment represents the mean values for 12 plants, within four replicates. Sowing density 110 kg/ha. Standard inoculant applied at sowing.

NAVY BEAN cv Mogex = assay: Root nodulation and safening, navy bean, compost of normal pH (Example 7.4); conditions: compost of normal pH (6.5); for Nodules Per Plant (V1): V1, +28 days after spraying, no inoculum; for Nodulation Score (0-9) (V1) / Phyto-Toxicity Score (0-9) (V1) / Vigour Score (0-9) (V1): V1, score 0-9
From the text: as §3, §4
NAVY BEAN cv Mogex. Scored/Counted+28 Days after Spraying. Dates as per Example 7.3 Above, but sown in compost of normal pH (6.5). Each treatment represents the mean value from 12 plants, within four replicates. No inoculum applied.

PEA cv Ragtime = assay: Root nodulation, rooting and safening, pea, compost of low pH (Examples 7.5 and 7.7)
From the text: as §3, §4
PEA—TRIAL 5—cv Ragtime. Scored/Counted+28 Days after Spraying. Sown in Compost of Low pH (5.0-5.5) on 28 Apr. 2008. Spray Date (VC)=26 May, V1 Date=14 June. Scored/Measured on 9 July. […] No inoculum applied.
Sowing details etc as per Example 7.5.

[1] = Table 1.3, winter barley, general fertilisers, score 0-9, +14 days
[2] = Table 1.3, winter barley, general fertilisers, score 0-9, +28 days
[3] = Table 1.8, lettuce, KP/ATS, score 0-9, +14 days
[4] = Table 1.8, lettuce, KP/ATS, score 0-9, +28 days
[5] = Table 1.9, lettuce, general fertilisers, score 0-9, 9 = Most Vigour, +14 days
[6] = Table 1.9, lettuce, general fertilisers, score 0-9, +28 days
[7] = compost of low pH (5.0-5.5), V1, +28 days after spraying, no inoculum
[8] = compost of low pH (5.0-5.5), V1, score 0-9
[9] = low pH compost, application at V1 (data from Example 7.5)
[10] = low pH compost, application at V1, 0-9 scale

CC(=O)Nc1ccc(O)cc1 [AC, N-(4-hydroxypheyl)acetamide, reference compound]
Vigour (0-9) (9 = Most Vigour) + 14 days (Winter Barley cv Saffron; 336 h): 7.0 | Vigour (0-9) + 28 Days (Winter Barley cv Saffron; 672 h): 8.0 | Vigour (0-9) (9 = Most Vigour) + 14 days (Winter Barley cv Saffron; [1]): 7.0 | Vigour (0-9) + 28 Days (Winter Barley cv Saffron; [2]): 8.0 | Vigour (0-9) (9 = Most Vigour) + 14 days (Lettuce cv Set; 336 h): 8.0 | Vigour (0-9) + 28 Days (Lettuce cv Set; 672 h): 8.0 | Vigour (0-9) (9 = Most Vigour) + 14 days (Lettuce cv Set; [3]): 8.0 | Vigour (0-9) + 28 Days (Lettuce cv Set; [4]): 8.0 | Vigour (0-9) (9 = Most Vigour) + 14 days (Lettuce cv Set; [5]): 8.0 | Vigour (0-9) + 28 Days (Lettuce cv Set; [6]): 8.0 | Phytotoxicity (0-9) (0 = Dead) + 14 Days (Lettuce cv Set; in vivo): 7.0 | Phytotoxicity (0-9) (0 = Dead) + 28 Days (Lettuce cv Set; in vivo): 6.5 | Nodules Per Plant (V1) (Soybean): 26.1 | Nodulation Score (0-9) (V1) (Soybean): 5.0 | Phyto-Toxicity Score (0-9) (V1) (Soybean): 8.0 | Vigour Score (0-9) (V1) (Soybean): 6.0 | Nodules Per Plant (VC) (Soybean): 28.1 | Nod Score (0-9) (VC) (Soybean): 5.3 | Nodules Per Plant (V1) (Glycine max (Soybean)): 29.9 | Nodulation Score (0-9) (V1) (Glycine max (Soybean)): 5.5 | Phyto-Toxicity Score (0-9) (V1) (Glycine max (Soybean)): 8.0 | Vigour Score (0-9) (V1) (Glycine max (Soybean)): 6.5 | Nodules Per Plant (VC) (Glycine max (Soybean)): 32.0 | Nod Score (0-9) (VC) (Glycine max (Soybean)): 5.7 | Nodules Per Plant (V1) (NAVY BEAN cv Mogex): 29.5 | Nodulation Score (0-9) (V1) (NAVY BEAN cv Mogex): 4.8 | Phyto-Toxicity Score (0-9) (V1) (NAVY BEAN cv Mogex): 7.0 | Vigour Score (0-9) (V1) (NAVY BEAN cv Mogex): 7.0 | Nodules Per Plant (VC) (NAVY BEAN cv Mogex): 32.1 | Nod Score (0-9) (VC) (NAVY BEAN cv Mogex): 5.0 | Nodules Per Plant (V1) (PEA cv Ragtime; [7]): 16.7 | Nodulation Score (0-9) (V1) (PEA cv Ragtime; [8]): 5.0 | Phyto-Toxicity Score (0-9) (V1) (PEA cv Ragtime; [8]): 5.2 | Vigour Score (0-9) (V1) (PEA cv Ragtime; [8]): 5.1 | Nodules Per Plant (VC) (PEA cv Ragtime; compost of low pH (5.0-5.5)): 17.3 | Nod Score (0-9) (VC) (PEA cv Ragtime; compost of low pH (5.0-5.5)): 5.2 | Nodules Per Plant (V1) (PEA cv Ragtime; [9]): 16.7 | Nodulation Score (0-9) (V1) (PEA cv Ragtime; [10]): 5.0 | Phyto-Toxicity Score (0-9) (V1) (PEA cv Ragtime; [10]): 5.2 | Rooting Score (0-9) (V1) (PEA cv Ragtime; [10]): 4.2

Nc1ccccc1C(=O)O [AN, anthranilic acid]
Phytotoxicity (0-9) (0 = Dead) + 14 Days (Winter Barley cv Saffron; Table 1.1, winter barley, phosphite fertiliser (KP), +14 days): 7.5 | Phytotoxicity (0-9) (0 = Dead) + 28 Days (Winter Barley cv Saffron; Table 1.1, winter barley, phosphite fertiliser (KP), +28 days): 8.0 | Vigour (0-9) (9 = Most Vigour) + 14 days (Winter Barley cv Saffron; Table 1.1, winter barley, phosphite fertiliser (KP), score 0-9, +14 days): 7.0 | Vigour (0-9) + 28 Days (Winter Barley cv Saffron; Table 1.1, winter barley, phosphite fertiliser (KP), score 0-9, +28 days): 8.0 | Phytotoxicity (0-9) (0 = Dead) + 14 Days (Winter Barley cv Saffron; Table 1.2, winter barley, KP + ammonium thiosulphate (KP/ATS), +14 days): 7.5 | Phytotoxicity (0-9) (0 = Dead) + 28 Days (Winter Barley cv Saffron; Table 1.2, winter barley, KP/ATS, +28 days): 8.0 | Vigour (0-9) (9 = Most Vigour) + 14 days (Winter Barley cv Saffron; Table 1.2, winter barley, KP/ATS, score 0-9, +14 days): 7.0 | Vigour (0-9) + 28 Days (Winter Barley cv Saffron; Table 1.2, winter barley, KP/ATS, score 0-9, +28 days): 8.0 | Phytotoxicity (0-9) (0 = Dead) + 14 Days (Winter Barley cv Saffron; Table 1.3, winter barley, general NPK fertilisers (GEN + KP, GENEX), +14 days): 7.5 | Phytotoxicity (0-9) (0 = Dead) + 28 Days (Winter Barley cv Saffron; Table 1.3, winter barley, general fertilisers, +28 days): 8.0 | Vigour (0-9) (9 = Most Vigour) + 14 days (Winter Barley cv Saffron; [1]): 7.0 | Vigour (0-9) + 28 Days (Winter Barley cv Saffron; [2]): 8.0 | Phytotoxicity (0-9) (0 = Dead) + 14 Days (Lettuce cv Set; Table 1.7, lettuce, phosphite fertiliser (KP), score 0-9, 0 = dead, +14 days): 7.0 | Phytotoxicity (0-9) (0 = Dead) + 28 Days (Lettuce cv Set; Table 1.7, lettuce, phosphite fertiliser (KP), score 0-9, 0 = dead, +28 days): 7.0 | Vigour (0-9) (9 = Most Vigour) + 14 days (Lettuce cv Set; Table 1.7, lettuce, phosphite fertiliser (KP), score 0-9, +14 days): 8.0 | Vigour (0-9) + 28 Days (Lettuce cv Set; Table 1.7, lettuce, phosphite fertiliser (KP), score 0-9, +28 days): 8.0 | Phytotoxicity (0-9) (0 = Dead) + 14 Days (Lettuce cv Set; Table 1.8, lettuce, KP + ammonium thiosulphate (KP/ATS), score 0-9, 0 = dead, +14 days): 7.0 | Phytotoxicity (0-9) (0 = Dead) + 28 Days (Lettuce cv Set; Table 1.8, lettuce, KP/ATS, score 0-9, 0 = dead, +28 days): 7.0 | Vigour (0-9) (9 = Most Vigour) + 14 days (Lettuce cv Set; [3]): 8.0 | Vigour (0-9) + 28 Days (Lettuce cv Set; [4]): 8.0 | Phytotoxicity (0-9) (0 = Dead) + 14 Days (Lettuce cv Set; Table 1.9, lettuce, general fertilisers, score 0-9, 0 = Dead, +14 days): 7.0 | Phytotoxicity (0-9) (0 = Dead) + 28 Days (Lettuce cv Set; Table 1.9, lettuce, general fertilisers, score 0-9, 0 = Dead, +28 days): 7.0 | Vigour (0-9) (9 = Most Vigour) + 14 days (Lettuce cv Set; [5]): 8.0 | Vigour (0-9) + 28 Days (Lettuce cv Set; [6]): 8.0 | Nodules Per Plant (V1) (Soybean): 28.2 | Nodulation Score (0-9) (V1) (Soybean): 5.3 | Phyto-Toxicity Score (0-9) (V1) (Soybean): 8.0 | Vigour Score (0-9) (V1) (Soybean): 6.2 | Nodules Per Plant (VC) (Soybean): 33.2 | Nod Score (0-9) (VC) (Soybean): 5.8 | Nodules Per Plant (V1) (Glycine max (Soybean)): 34.2 | Nodulation Score (0-9) (V1) (Glycine max (Soybean)): 5.9 | Phyto-Toxicity Score (0-9) (V1) (Glycine max (Soybean)): 8.0 | Vigour Score (0-9) (V1) (Glycine max (Soybean)): 6.7 | Nodules Per Plant (VC) (Glycine max (Soybean)): 33.3 | Nod Score (0-9) (VC) (Glycine max (Soybean)): 5.8 | Nodules Per Plant (V1) (NAVY BEAN cv Mogex): 32.2 | Nodulation Score (0-9) (V1) (NAVY BEAN cv Mogex): 5.0 | Phyto-Toxicity Score (0-9) (V1) (NAVY BEAN cv Mogex): 7.0 | Vigour Score (0-9) (V1) (NAVY BEAN cv Mogex): 7.2 | Nodules Per Plant (VC) (NAVY BEAN cv Mogex): 33.2 | Nod Score (0-9) (VC) (NAVY BEAN cv Mogex): 5.1 | Nodules Per Plant (V1) (PEA cv Ragtime; [7]): 16.8 | Nodulation Score (0-9) (V1) (PEA cv Ragtime; [8]): 5.0 | Phyto-Toxicity Score (0-9) (V1) (PEA cv Ragtime; [8]): 5.2 | Vigour Score (0-9) (V1) (PEA cv Ragtime; [8]): 5.5 | Nodules Per Plant (VC) (PEA cv Ragtime; compost of low pH (5.0-5.5)): 17.3 | Nod Score (0-9) (VC) (PEA cv Ragtime; compost of low pH (5.0-5.5)): 5.2 | Nodules Per Plant (V1) (PEA cv Ragtime; [9]): 16.8 | Nodulation Score (0-9) (V1) (PEA cv Ragtime; [10]): 5.0 | Phyto-Toxicity Score (0-9) (V1) (PEA cv Ragtime; [10]): 5.2 | Rooting Score (0-9) (V1) (PEA cv Ragtime; [10]): 4.2
